Measured values published in ChEMBL document CHEMBL3046093, “Effect of doses of fungicides and plant resistance activators on the control of Rhizoctonia foliar blight of soybean, and on Rhizoctonia solani AG1-IA in vitro development” (Crop Prot, 2006).
In brackets after ≈: the same amount, converted by molar mass. Activity calls are given as the source filed them. The calls are words filed in the database; no cut-off is given here.

Legend:
Rhizoctonia solani [1] = experiment: Antifungal activity against Rhizoctonia solani AG-1 IA assessed as reduction of mycelial growth at 100 mg/l relative to control; format: functional; parameters: scale not given: the % may be the effect or the level left
Rhizoctonia solani [2] = experiment: Antifungal activity against Rhizoctonia solani AG-1 IA assessed as inhibition of mycelial growth at < 10 mg/l relative to control; format: functional, organism-based
Glycine max [3] = experiment: Induction of systemic acquired resistance in Glycine max (soybean) plant infected with Rhizoctonia solani AG-1 IA assessed as reduction in disease severity at 25 mg a.i/l applied as spray on day 5 prior to inoculation measured after 10 days relative to control; format: functional, organism-based
Glycine max [4] = experiment: Induction of systemic acquired resistance in Glycine max (soybean) plant infected with Rhizoctonia solani AG-1 IA assessed as reduction in disease severity at 12.5 mg a.i/l applied as spray on day 10 prior to inoculation measured after 5 days relative to control; format: functional; parameters: scale not given: the % may be the effect or the level left
Rhizoctonia solani [5] = experiment: Antifungal activity against Rhizoctonia solani AG-1 IA assessed as mycelial growth at 0.1 mg/l (reference value: 40 mm); format: functional
Rhizoctonia solani [6] = experiment: Antifungal activity against Rhizoctonia solani AG-1 IA assessed as mycelial growth at 1 mg/l (reference value: 40 mm); format: functional
Glycine max [7] = experiment: Induction of systemic acquired resistance in Glycine max (soybean) plant infected with Rhizoctonia solani AG-1 IA assessed as reduction in disease severity at 12.5 mg a.i/l applied as spray on day 10 prior to inoculation measured after 10 days relative to control; format: functional; parameters: scale not given: the % may be the effect or the level left
Rhizoctonia solani [8] = experiment: Antifungal activity against Rhizoctonia solani AG-1 IA assessed as reduction of mycelial growth at 10 mg/l relative to control; format: functional; parameters: scale not given: the % may be the effect or the level left
Rhizoctonia solani [9] = experiment: Fungicidal activity against Rhizoctonia solani AG-1 IA assessed as mycelial radial growth at 0.1 mg/l (reference value: 40 mm); format: functional
Rhizoctonia solani [10] = experiment: Protective effect against Rhizoctonia solani AG-1 IA infected soybean plant at 50 g a.i/ha applied as spray at V5 to V6 growth stage prior to inoculation measured after 5 to 10 days under greenhouse condition relative to control; format: functional, organism-based
Rhizoctonia solani [11] = experiment: Fungicidal activity against Rhizoctonia solani AG-1 IA assessed as inhibition of mycelial radial growth; format: functional, organism-based
Rhizoctonia solani [12] = experiment: Fungicidal activity against Rhizoctonia solani AG-1 IA assessed as mycelial radial growth at 1 mg/l (reference value: 40 mm); format: functional
Rhizoctonia solani [13] = experiment: Fungicidal activity against Rhizoctonia solani AG-1 IA assessed as mycelial radial growth at 10 mg/l (reference value: 40 mm); format: functional
Rhizoctonia solani [14] = experiment: Curative effect against Rhizoctonia solani AG-1 IA infected soybean plant at 50 g a.i/ha applied as spray at V5 to V6 growth stage post inoculation measured after 5 to 10 days under greenhouse condition relative to control; format: functional, organism-based
Rhizoctonia solani [15] = experiment: Fungicidal activity against Rhizoctonia solani AG-1 IA assessed as mycelial radial growth at 100 mg/l (reference value: 40 mm); format: functional
Rhizoctonia solani [16] = experiment: Protective effect against Rhizoctonia solani AG-1 IA infected soybean plant at 750 g a.i/ha applied as spray at V5 to V6 growth stage prior to inoculation measured after 5 to 10 days under greenhouse condition relative to control; format: functional, organism-based
Rhizoctonia solani [17] = experiment: Curative effect against Rhizoctonia solani AG-1 IA infected soybean plant at 100 g a.i/ha applied as spray at V5 to V6 growth stage post inoculation measured after 5 to 10 days under greenhouse condition relative to control; format: functional, organism-based
Rhizoctonia solani [18] = experiment: Protective effect against Rhizoctonia solani AG-1 IA infected soybean plant at 100 g a.i/ha applied as spray at V5 to V6 growth stage prior to inoculation measured after 5 to 10 days under greenhouse condition relative to control; format: functional, organism-based
Glycine max [19] = experiment: Phytotoxicity in Glycine max (soybean) plant assessed as leaf burning at 200 g a.i/ha; format: organism-based; details: in vivo
Glycine max [20] = experiment: Phytotoxicity in Glycine max (soybean) plant assessed as dwarfing at 200 g a.i/ha; format: organism-based; details: in vivo
[21] = Rhizoctonia solani, AG-1 IA, read-out: EC50

| Compound | Activity (Rhizoctonia solani [9]) [mm] | EC90 (Rhizoctonia solani [11]; Rhizoctonia solani, AG-1 IA) [µg/mL] | EC50 (Rhizoctonia solani [11]; [21]) [µg/mL] | Activity (Rhizoctonia solani [12]) [mm] | Activity (Rhizoctonia solani [13]) [mm] | Activity (Rhizoctonia solani [15]) [mm] | other results |
| --- | --- | --- | --- | --- | --- | --- | --- |
| CSC(=O)c1cccc2nnsc12 [ACIBENZOLAR-S-METHYL] | – | – | – | – | – | – | Activity (Rhizoctonia solani [1]): 55.2%; inhibition (Rhizoctonia solani [2]): inactive; Activity (Glycine max [3]): Active; Activity (Glycine max [4]): 28.5%; Activity (Rhizoctonia solani [5]): 40 mm; Activity (Rhizoctonia solani [6]): 40 mm; Activity (Glycine max [7]): 36%; Activity (Rhizoctonia solani [8]): 19% |
| CO/C=C(/C(=O)OC)c1ccccc1Oc1cc(Oc2ccccc2C#N)ncn1 [AZOXYSTROBIN] | 15.2 | 33.1 (≈ 82 µM) | 0.668 (≈ 1.66 µM) | 16 | 13.1 | 10.3 | Activity (Rhizoctonia solani [10]): Active; Activity (Rhizoctonia solani [14]): Active |
| CCCCNC(=O)n1c(NC(=O)OC)nc2ccccc21 [BENOMYL] | 38.8 | 17.4 (≈ 60 µM) | 0.352 (≈ 1.21 µM) | 9.6 | 0 | 0 | – |
| Clc1ccc(C2(Cn3cncn3)CC(Br)CO2)c(Cl)c1 (configuration not stated) [BROMUCONAZOLE] | 17.9 | 4.81 (≈ 12.8 µM) | 0.097 (≈ 0.257 µM) | 8.2 | 3.6 | 0.7 | – |
| COC(=O)Nc1nc2ccccc2[nH]1 [CARBENDAZIM] | 39 | 8.41 (≈ 44 µM) | 0.17 (≈ 0.889 µM) | 1.5 | 0 | 0 | – |
| N#Cc1c(Cl)c(Cl)c(Cl)c(C#N)c1Cl [CHLOROTHALONIL] | 30 | 49.4 (≈ 186 µM) | 0.998 (≈ 3.75 µM) | 19.3 | 7.6 | 4.7 | – |
| CC1COC(Cn2cncn2)(c2ccc(Oc3ccc(Cl)cc3)cc2Cl)O1 (configuration not stated) [DIFENOCONAZOLE] | 6.6 | 1.13 (≈ 2.78 µM) | 0.023 (≈ 0.0566 µM) | 5 | 2.7 | 1.5 | – |
| O=[N+]([O-])c1cc(C(F)(F)F)c(Cl)c([N+](=O)[O-])c1Nc1ncc(C(F)(F)F)cc1Cl [FLUAZINAM] | 9.1 | 2.27 (≈ 4.89 µM) | 0.046 (≈ 0.0989 µM) | 5.1 | 4.3 | 3.4 | Activity (Rhizoctonia solani [16]): Active |
| N#Cc1c[nH]cc1-c1cccc2c1OC(F)(F)O2 [FLUDIOXONIL] | 7.1 | 0.161 (≈ 0.649 µM) | 0.003 (≈ 0.0121 µM) | 0 | 0 | 0 | – |
| CC(C)NC(=O)N1CC(=O)N(c2cc(Cl)cc(Cl)c2)C1=O [IPRODIONE] | 39 | 11.8 (≈ 35.6 µM) | 0.237 (≈ 0.718 µM) | 5.5 | 0 | 0 | – |
| CO/N=C(/C(=O)OC)c1ccccc1COc1ccccc1C [KRESOXIM-METHYL] | 26 | 490 (≈ 1560 µM) | 9.9 (≈ 31.6 µM) | 26.9 | 25.1 | 22 | – |
| CC12CC1(C)C(=O)N(c1cc(Cl)cc(Cl)c1)C2=O (configuration not stated) [PROCYMIDONE] | 37.2 | – | – | 17.6 | 1.2 | 0.6 | – |
| COC(=O)N(OC)c1ccccc1COc1ccn(-c2ccc(Cl)cc2)n1 [PYRACLOSTROBIN] | 17.8 | 4.67 (≈ 12.1 µM) | 0.094 (≈ 0.242 µM) | 8.1 | 5.4 | 0 | Activity (Rhizoctonia solani [17]): Active; Activity (Rhizoctonia solani [18]): Active |
| O=C(O)c1ccccc1O [SALICYLIC ACID] | – | – | – | – | – | – | inhibition (Rhizoctonia solani [2]): inactive; Activity (Rhizoctonia solani [5]): 40 mm; Activity (Rhizoctonia solani [6]): 40 mm |
| CC(C)(C)C(O)(CCc1ccc(Cl)cc1)Cn1cncn1 (configuration not stated) [TEBUCONAZOLE] | 13.5 | 2.42 (≈ 7.85 µM) | 0.049 (≈ 0.159 µM) | 7.6 | 3.3 | 0 | Activity (Glycine max [19]): Toxic; Activity (Glycine max [20]): Toxic |
| c1ccc2[nH]c(-c3cscn3)nc2c1 [THIABENDAZOLE] | 36.1 | 10.9 (≈ 54.2 µM) | 0.22 (≈ 1.09 µM) | 7.3 | 0 | 0 | – |
| COC(=O)NC(=S)Nc1ccccc1NC(=S)NC(=O)OC [THIOPHANATE METHYL] | 39.6 | 537 (≈ 1570 µM) | 10.8 (≈ 31.7 µM) | 36.7 | 20.8 | 0.4 | – |
| TRIPHENYLSTANNANOL [listing 1 of 2 here] | – | – | – | – | – | – | EC50 (Rhizoctonia solani [11]): 0.112 µg/mL |
| TRIPHENYLSTANNANOL [listing 2 of 2 here] | 14.1 | – | – | 10.6 | 6.4 | 1 | EC90 (Rhizoctonia solani [11]): 5.55 µg/mL |
